Columns and labels:
[1] = Clearance in Beagle dog at 0.5 mg/kg, iv measured up to 24 hrs by LC-MS/MS analysis; format: ADME, organism-based, Canis lupus familiaris; settings: in vivo
[2] = target: T1, CYP2B6 (Homo sapiens, UniProt P20813); test: Time dependent inhibition of CYP2B6 (unknown origin) at 30 uM measured after 30 mins relative to control; format: ADME; settings: read-out: TDI
T1 sequence (P20813 whole entry): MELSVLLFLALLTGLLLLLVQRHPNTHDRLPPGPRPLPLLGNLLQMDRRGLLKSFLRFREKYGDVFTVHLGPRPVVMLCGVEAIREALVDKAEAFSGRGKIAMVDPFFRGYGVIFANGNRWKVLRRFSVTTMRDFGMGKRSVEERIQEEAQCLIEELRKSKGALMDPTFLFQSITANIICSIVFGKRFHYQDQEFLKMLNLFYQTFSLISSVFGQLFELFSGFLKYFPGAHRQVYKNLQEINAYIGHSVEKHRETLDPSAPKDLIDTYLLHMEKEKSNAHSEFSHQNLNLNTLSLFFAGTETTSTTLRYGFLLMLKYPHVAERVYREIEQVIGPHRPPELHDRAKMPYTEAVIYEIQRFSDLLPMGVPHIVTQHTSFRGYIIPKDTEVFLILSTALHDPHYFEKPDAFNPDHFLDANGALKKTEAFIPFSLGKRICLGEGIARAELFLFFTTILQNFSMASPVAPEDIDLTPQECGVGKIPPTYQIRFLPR

[3] = target: CYP2D6 (Homo sapiens, UniProt P10635); test: Time dependent inhibition of CYP2D6 (unknown origin) at 30 uM measured after 30 mins relative to control; format: ADME; settings: read-out: TDI
[4] = target: T2, CYP3A4 (Homo sapiens, UniProt P08684); test: Time dependent inhibition of CYP3A4 (unknown origin) using testosterone as substrate at 30 uM measured after 30 mins relative to control; format: ADME; settings: probe testosterone, read-out: TDI
[5] = target: T3, CYP2C8 (Homo sapiens, UniProt P10632); test: Time dependent inhibition of CYP2C8 (unknown origin) at 30 uM measured after 30 mins relative to control; format: ADME; settings: read-out: TDI
T3 sequence (P10632 whole entry): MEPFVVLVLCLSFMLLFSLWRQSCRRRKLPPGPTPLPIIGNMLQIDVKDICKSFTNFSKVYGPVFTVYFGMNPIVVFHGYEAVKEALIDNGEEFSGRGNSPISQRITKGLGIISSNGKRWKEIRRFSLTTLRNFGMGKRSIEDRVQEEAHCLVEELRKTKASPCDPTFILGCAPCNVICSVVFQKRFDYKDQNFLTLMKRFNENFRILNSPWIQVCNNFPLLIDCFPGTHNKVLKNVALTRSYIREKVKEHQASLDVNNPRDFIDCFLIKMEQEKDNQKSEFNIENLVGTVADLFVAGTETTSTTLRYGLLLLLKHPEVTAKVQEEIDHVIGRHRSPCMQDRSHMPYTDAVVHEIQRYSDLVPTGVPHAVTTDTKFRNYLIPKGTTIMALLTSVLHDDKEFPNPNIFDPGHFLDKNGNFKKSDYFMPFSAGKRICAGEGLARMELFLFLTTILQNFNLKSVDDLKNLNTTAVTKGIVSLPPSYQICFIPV

[6] = target: T4, Tyrosine-protein kinase receptor UFO (Homo sapiens, UniProt P30530); test: Inhibition of human AXL measured after 150 mins by ATP-competitive HTRF based biochemical assay
T4 sequence (P30530 whole entry): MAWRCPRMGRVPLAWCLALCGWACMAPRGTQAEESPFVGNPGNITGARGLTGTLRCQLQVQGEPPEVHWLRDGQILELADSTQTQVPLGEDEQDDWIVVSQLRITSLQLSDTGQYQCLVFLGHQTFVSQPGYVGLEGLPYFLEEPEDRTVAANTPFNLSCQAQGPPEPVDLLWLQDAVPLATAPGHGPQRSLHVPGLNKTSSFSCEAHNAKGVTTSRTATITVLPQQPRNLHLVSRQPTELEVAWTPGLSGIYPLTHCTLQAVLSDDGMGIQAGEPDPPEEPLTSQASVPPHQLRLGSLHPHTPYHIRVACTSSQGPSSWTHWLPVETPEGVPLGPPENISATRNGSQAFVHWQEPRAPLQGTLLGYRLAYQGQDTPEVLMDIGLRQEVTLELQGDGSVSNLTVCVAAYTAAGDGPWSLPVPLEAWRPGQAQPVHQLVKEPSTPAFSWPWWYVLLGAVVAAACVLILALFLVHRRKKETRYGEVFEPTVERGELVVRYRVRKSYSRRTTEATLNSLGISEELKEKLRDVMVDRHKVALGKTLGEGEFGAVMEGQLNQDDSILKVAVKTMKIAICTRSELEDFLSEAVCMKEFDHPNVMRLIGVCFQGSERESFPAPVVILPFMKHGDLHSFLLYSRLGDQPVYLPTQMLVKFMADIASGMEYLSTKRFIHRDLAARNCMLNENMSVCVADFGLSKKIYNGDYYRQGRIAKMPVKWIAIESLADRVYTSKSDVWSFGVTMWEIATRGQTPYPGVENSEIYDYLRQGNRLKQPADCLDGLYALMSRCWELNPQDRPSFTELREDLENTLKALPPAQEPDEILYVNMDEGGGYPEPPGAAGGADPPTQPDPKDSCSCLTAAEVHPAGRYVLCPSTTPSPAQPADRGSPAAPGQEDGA

[7] = target: T4, Tyrosine-protein kinase receptor UFO; test: Inhibition of autophosphorylation AXL (unknown origin) expressed in HEK293 cells assessed as NanoLuc activity associated with phosphorylated proteins measured after 1 hr incubation by intracellular pAXL-ELISA; format: cell-based
[8] = Metabolic stability in human hepatocytes assessed as intrinsic clearance measured per 10^6 cells; format: ADME, cell-based, Hepatocyte; settings: read-out: CLH
[9] = Efflux ratio in human Caco-2 cells; format: ADME, cell-based
[10] = Apparent permeability of compound from apical to basolateral side in human Caco-2 cells; format: ADME, cell-based; settings: read-out: permeability
[11] = target: CYP2C9 (Homo sapiens, UniProt P11712); test: Time dependent inhibition of CYP2C9 (unknown origin) at 30 uM measured after 30 mins relative to control; format: ADME; settings: read-out: TDI
[12] = Metabolic stability in rat hepatocytes assessed as intrinsic clearance measured per 10^6 cells; format: ADME, cell-based, Hepatocyte; settings: read-out: CLH
[13] = target: CYP2C19 (Homo sapiens, UniProt P33261); test: Time dependent inhibition of CYP2C19 (unknown origin) at 30 uM measured after 30 mins relative to control; format: ADME; settings: read-out: TDI
[14] = target: hERG (KCNH2) (Homo sapiens, UniProt Q12809); test: Inhibition of hERG at 10 uM by high throughput cell based patch clamp assay; format: toxicity
[15] = target: T2, CYP3A4; test: Time dependent inhibition of CYP3A4 (unknown origin) using midazolam as substrate at 30 uM measured after 30 mins relative to control; format: ADME; settings: probe midazolam, read-out: TDI
[16] = Clearance in Sprague-Dawley rat at 0.5 mg/kg, iv measured up to 24 hrs by LC-MS/MS analysis; format: ADME, organism-based; settings: in vivo
[17] = Clearance in cynomolgus monkey at 0.5 mg/kg, iv measured up to 24 hrs by LC-MS/MS analysis; format: ADME, organism-based, Macaca fascicularis; settings: in vivo
[18] = AUCinf in Sprague-Dawley rat at 2 mg/kg, po measured up to 8 hrs by LC-MS/MS analysis; format: ADME, organism-based; settings: in vivo
[19] = Clearance in CD-1 mouse at 0.5 mg/kg, iv measured up to 24 hrs by LC-MS/MS analysis; format: ADME, organism-based; settings: in vivo
[20] = target: T5, CYP1A2 (Homo sapiens, UniProt P05177); test: Time dependent inhibition of CYP1A2 (unknown origin) at 30 uM measured after 30 mins relative to control; format: ADME; settings: read-out: TDI
T5 sequence (P05177 whole entry): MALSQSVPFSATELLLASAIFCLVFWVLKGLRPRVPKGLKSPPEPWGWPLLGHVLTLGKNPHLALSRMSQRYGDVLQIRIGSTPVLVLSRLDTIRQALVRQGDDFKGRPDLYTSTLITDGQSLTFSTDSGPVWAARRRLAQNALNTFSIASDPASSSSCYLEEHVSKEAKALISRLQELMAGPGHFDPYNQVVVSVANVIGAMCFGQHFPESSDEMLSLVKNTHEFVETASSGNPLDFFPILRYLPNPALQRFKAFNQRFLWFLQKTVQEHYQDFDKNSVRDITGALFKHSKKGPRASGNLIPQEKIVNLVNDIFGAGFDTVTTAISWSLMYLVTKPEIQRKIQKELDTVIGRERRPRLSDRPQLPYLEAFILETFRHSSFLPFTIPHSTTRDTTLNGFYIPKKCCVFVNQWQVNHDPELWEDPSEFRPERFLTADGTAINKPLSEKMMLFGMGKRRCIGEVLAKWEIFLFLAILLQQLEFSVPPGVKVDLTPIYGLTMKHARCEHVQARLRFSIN

T2 sequence (P08684 whole entry): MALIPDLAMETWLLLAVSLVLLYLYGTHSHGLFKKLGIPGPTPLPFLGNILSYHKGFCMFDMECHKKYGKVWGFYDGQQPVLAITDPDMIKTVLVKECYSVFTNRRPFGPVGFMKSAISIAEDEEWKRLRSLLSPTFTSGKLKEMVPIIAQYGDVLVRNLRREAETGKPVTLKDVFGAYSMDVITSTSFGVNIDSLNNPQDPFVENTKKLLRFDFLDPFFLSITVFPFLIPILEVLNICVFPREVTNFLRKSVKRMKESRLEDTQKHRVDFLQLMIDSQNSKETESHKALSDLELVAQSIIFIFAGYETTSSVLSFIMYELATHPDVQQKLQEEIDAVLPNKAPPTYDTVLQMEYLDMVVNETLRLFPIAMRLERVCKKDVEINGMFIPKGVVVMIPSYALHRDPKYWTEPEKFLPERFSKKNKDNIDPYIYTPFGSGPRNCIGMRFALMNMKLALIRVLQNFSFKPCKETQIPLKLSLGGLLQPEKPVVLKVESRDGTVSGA
Chain of hERG (KCNH2) (Q12809 whole entry): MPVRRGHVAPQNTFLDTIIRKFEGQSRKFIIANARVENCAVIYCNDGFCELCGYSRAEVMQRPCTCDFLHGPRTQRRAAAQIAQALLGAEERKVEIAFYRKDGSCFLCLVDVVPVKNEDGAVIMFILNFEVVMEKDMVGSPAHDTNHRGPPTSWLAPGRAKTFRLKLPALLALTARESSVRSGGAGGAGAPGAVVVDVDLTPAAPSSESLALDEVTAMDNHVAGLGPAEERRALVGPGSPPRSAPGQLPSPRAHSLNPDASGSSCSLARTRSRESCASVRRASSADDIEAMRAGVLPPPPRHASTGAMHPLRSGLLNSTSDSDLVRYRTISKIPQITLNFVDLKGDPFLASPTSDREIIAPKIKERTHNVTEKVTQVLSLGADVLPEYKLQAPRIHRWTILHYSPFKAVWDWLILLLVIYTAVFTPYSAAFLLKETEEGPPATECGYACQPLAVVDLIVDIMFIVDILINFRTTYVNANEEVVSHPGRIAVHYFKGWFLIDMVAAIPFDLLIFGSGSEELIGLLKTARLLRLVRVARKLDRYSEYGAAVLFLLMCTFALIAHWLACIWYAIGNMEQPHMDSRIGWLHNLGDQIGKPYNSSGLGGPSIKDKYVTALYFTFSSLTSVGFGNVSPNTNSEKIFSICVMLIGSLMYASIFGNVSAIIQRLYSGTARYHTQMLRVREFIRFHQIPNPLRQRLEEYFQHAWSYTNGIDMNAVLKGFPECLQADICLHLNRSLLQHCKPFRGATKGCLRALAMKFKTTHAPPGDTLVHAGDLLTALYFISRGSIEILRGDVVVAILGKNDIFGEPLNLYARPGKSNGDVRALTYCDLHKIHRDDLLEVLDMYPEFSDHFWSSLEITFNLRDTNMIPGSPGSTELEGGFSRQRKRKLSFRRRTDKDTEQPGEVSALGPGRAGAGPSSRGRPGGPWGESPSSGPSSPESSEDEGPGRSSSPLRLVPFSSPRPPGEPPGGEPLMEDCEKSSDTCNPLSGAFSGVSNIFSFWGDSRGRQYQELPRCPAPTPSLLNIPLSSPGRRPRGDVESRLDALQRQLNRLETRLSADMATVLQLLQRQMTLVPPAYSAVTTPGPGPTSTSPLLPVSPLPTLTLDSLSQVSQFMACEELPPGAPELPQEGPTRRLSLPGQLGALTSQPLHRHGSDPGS
Chain of CYP2C9 (P11712 whole entry): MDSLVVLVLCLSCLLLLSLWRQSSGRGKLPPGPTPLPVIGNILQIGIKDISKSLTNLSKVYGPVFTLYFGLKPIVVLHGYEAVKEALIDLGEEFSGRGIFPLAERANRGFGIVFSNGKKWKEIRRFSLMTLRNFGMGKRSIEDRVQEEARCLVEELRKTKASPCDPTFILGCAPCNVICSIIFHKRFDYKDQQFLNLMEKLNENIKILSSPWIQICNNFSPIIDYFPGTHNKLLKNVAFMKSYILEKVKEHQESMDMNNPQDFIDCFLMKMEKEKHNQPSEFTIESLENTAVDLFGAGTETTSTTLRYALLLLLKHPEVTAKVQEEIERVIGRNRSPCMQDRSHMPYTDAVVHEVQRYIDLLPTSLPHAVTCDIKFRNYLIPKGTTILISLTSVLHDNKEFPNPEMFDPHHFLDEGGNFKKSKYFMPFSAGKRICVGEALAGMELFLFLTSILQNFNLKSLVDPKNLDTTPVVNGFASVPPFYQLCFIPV
Chain of CYP2C19 (P33261 whole entry): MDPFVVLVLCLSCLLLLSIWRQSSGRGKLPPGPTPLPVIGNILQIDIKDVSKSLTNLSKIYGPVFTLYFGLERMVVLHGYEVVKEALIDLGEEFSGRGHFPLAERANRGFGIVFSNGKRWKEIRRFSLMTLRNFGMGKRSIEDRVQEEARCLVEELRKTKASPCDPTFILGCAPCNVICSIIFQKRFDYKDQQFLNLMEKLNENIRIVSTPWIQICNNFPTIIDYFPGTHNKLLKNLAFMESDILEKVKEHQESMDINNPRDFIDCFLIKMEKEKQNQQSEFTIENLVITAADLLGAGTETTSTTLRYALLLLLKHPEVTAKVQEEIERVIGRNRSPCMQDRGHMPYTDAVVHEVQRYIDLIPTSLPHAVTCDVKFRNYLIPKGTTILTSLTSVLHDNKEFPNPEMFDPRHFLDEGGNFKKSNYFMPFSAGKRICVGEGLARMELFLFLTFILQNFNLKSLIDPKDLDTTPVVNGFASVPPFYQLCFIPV
Chain of CYP2D6 (P10635 whole entry): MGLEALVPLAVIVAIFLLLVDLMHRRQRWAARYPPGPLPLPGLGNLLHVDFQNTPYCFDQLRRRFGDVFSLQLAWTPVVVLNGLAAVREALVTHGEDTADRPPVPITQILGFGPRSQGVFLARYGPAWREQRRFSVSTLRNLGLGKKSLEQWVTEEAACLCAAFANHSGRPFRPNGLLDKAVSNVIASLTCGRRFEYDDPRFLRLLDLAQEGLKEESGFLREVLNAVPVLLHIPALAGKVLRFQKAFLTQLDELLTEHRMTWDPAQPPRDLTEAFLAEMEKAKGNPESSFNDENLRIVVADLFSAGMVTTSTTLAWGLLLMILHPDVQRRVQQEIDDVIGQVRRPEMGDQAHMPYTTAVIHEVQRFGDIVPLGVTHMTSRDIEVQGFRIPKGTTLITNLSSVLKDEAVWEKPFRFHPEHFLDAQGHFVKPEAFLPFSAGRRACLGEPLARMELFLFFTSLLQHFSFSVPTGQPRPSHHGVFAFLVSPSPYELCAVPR

With `Cc1cccnc1-c1ccc(-c2c[nH]c3ncc(-c4ccc5c(c4)CC[C@@H](N4C6COCC4C6)CC5)cc23)cc1` the clearance [1] was 11.8 mL/min/kg, the inhibition at 0.5 h, 30 µM [2] was 14% and the inhibition at 0.5 h, 30 µM [3] was 14%. The inhibition at 0.5 h, 30 µM [4] was 69%, the inhibition at 0.5 h, 30 µM [5] was 0% and the IC50 [6] was 0.72 nM. The IC50 [7] was 67 nM, the hepatocyte CLint [8] was less than 2.7 µL/min/1e6 cells and the efflux ratio [9] was 0.9. The Papp A→B [10] was 0.58 ×10⁻⁶ cm/s, the inhibition at 0.5 h, 30 µM [11] was 13% and the hepatocyte CLint [12] was 5.4 µL/min/1e6 cells. The inhibition at 0.5 h, 30 µM [13] was 12%, the inhibition at 10 µM [14] was 40% and the inhibition at 0.5 h, 30 µM [15] was 58%. It also gave a clearance [16] of 2.67 mL/min/kg, a clearance [17] of 4.67 mL/min/kg and an AUC(0-inf) [18] of 4800 ng·h/mL. The clearance [19] was 3.33 mL/min/kg and the inhibition at 0.5 h, 30 µM [20] was 0%.
